Assay results taken from ChEMBL document CHEMBL3393030, “Synthesis and properties of vitamin E analog-conjugated neomycin for delivery of RNAi drugs to liver cells” (Bioorg Med Chem Lett, 2015).

Legend:
[1] = Binding affinity to self-complementary RNA-12mer duplex (5'-rCGCGAAUUCGCG-3')2 (unknown origin) assessed as melting temperature by […] assay (reference value: 61 degC); details: Homo sapiens
[2] = Drug uptake in mouse HePa1-6 cells assessed as red signal with Cy3 conjugate compound; assay type: ADME, cell-based
RH7777 = experiment: Induction of RNAi activity in rat McA-RH7777 cells by LDLR assay; assay type: cell-based

Tm [1] [°C] | Drug uptake [2] | SMILES | Activity (RH7777)
65.6 |  | CCCCCCCCCCCCCCCCCC(=O)Oc1c(C)c(C)c2c(c1C)CC[C@@](C)(CCCCCCCCCOCc1cn(CCCCCCCCCCCCCCCCSC[C@H]3O[C@@H](O[C@@H]4[C@@H](O)[C@H](N)C[C@H](N)[C@H]4O[C@H]4O[C@H](CN)[C@@H](O)[C@H](O)[C@H]4N)[C@H](O)[C@@H]3O[C@H]3O[C@@H](CN)[C@@H](O)[C@H](O)[C@H]3N)nn1)O2 | 
66.8 | Active | CCCCCCCC/C=C/CCCCCCCC(=O)Oc1c(C)c(C)c2c(c1C)CC[C@@](C)(CCCCCCCCCOCc1cn(CCCCCCCCCCCCCCCCSC[C@H]3O[C@@H](O[C@@H]4[C@@H](O)[C@H](N)C[C@H](N)[C@H]4O[C@H]4O[C@H](CN)[C@@H](O)[C@H](O)[C@H]4N)[C@H](O)[C@@H]3O[C@H]3O[C@@H](CN)[C@@H](O)[C@H](O)[C@H]3N)nn1)O2 | Toxic
72.8 | Active | CCCCCCCCCCCCCCCCOC(COC[C@]1(C)CCc2c(C)c(O)c(C)c(C)c2O1)OCc1cn(CCCCCCCCCCCCCCCCSC[C@H]2O[C@@H](O[C@@H]3[C@@H](O)[C@H](N)C[C@H](N)[C@H]3O[C@H]3O[C@H](CN)[C@@H](O)[C@H](O)[C@H]3N)[C@H](O)[C@@H]2O[C@H]2O[C@@H](CN)[C@@H](O)[C@H](O)[C@H]2N)nn1 (stereo partly drawn) | Toxic
64.2 |  | NC[C@@H]1O[C@H](O[C@H]2[C@@H](O)[C@H](O[C@@H]3[C@@H](O)[C@H](N)C[C@H](N)[C@H]3O[C@H]3O[C@H](CN)[C@@H](O)[C@H](O)[C@H]3N)O[C@@H]2CO)[C@H](N)[C@@H](O)[C@@H]1O | 
